What was measured:
[1] = system: NKCC1 pThr203; test: Phosphorylation immunoblot in KCC2-transfected HEK293 cells; type: cell-based, human; parameters: key to NKCC1 pThr203 (μM) Iso / NKCC1 pThr203 (μM) hypo: “—” showed no inhibition of phosphorylation of SPAK/NKCC1/KC22; settings: concentration inhibiting phosphorylation; for NKCC1 pThr203 (μM) hypo: hypotonic low Cl- conditions; for NKCC1 pThr203 (μM) Iso: isotonic conditions
Procedure: (§1) HEK293 (human embryonic kidney 293) cells were cultured on 10-cm-diameter dishes in DMEM supplemented with 10% (v/v) foetal bovine serum, 2 mM L-glutamine, 100 U/ml penicillin and 0.1 mg/ml streptomycin. HEK293 cells were transfected with a mixture of 20 μl of 1 mg/ml polyethylenimine (Polysciences) and 5-10 μg of plasmid DNA as described previously (Durocher et al., 2002). 36 hours post-transfection cells were stimulated with either control isotonic or hypotonic medium for a period of 30 minutes. Cells were lysed in 0.3 mL of ice-cold lysis buffer/dish, lysates were clarified by centrifugation at 4° C. for 15 minutes at 26,000 g and the supernatant aliquots were frozen in liquid nitrogen and stored at −20° C. Protein concentrations were determined using the Bradford method. Cells were treated with the indicated concentrations of the SPAK/OSR1 inhibitors. […] Hypotonic low chloride buffer was 67.5 mM sodium-gluconate, 2.5 mM potassium-gluconate, 0.25 mM CaCl2), 0.25 mM MgCl2, 0.5 mM Na2HPO4, 0.5 mM Na2SO4 and 7.5 mM HEPES (pH 7.5).
(§2) The membranes were incubated for 30 min with TBST (Tris-buffered saline, 0.05% Tween-20) containing 5% (w/v) skim milk. The blots were then washed six times with TBST and incubated for 1 hour at room temperature with secondary HRP-conjugated antibodies diluted 5000-fold in 5% (w/v) skim milk in TBST. After repeating the washing steps, signals were detected with enhanced chemiluminescence reagent. Immunoblots were developed using a film automatic processor (SRX-101; Konica Minolta Medical) and films were scanned at 600 dpi (PowerLook 1000; UMAX). Figures were generated using Photoshop/Illustrator (Adobe). The densities of bands were measured with ImageJ. For phospho-antibody immunoprecipitation, KCC isoforms were immunoprecipitated from indicated cell extracts. 2 mg of the indicated clarified cell extract were mixed with 15 μg of the indicated phospho-specific KCC antibody conjugated to 15 μl of protein-G-Sepharose, in the added presence of […] of the dephosphorylated form of the phosphopeptide antigen, and incubated 2 hours at 4° C. with gentle shaking. Immunoprecipitates were washed three times with 1 mL of lysis buffer containing 0.15 M NaCl and twice with 1 ml of buffer A. Bound proteins were eluted with 1×LDS sample buffer.
(§3) HEK293 cells were transfected with a DNA construct encoding wild type N-terminally FLAG-tagged KCC2. 36 hrs post-transfection, cells were exposed 30 min to either control isotonic or hypotonic low [C1^−] conditions, then treated in the same conditions for an additional 30 min with the indicated inhibitors at the concentrations noted. Cell lysates were subjected to SDS-PAGE and Western blotting with the indicated antibodies. See FIG. 3 for Western blot quantitation.
(§4) Referring to FIG. 2, concentration-response experiments testing effects of Closantel analogs on phosphorylation of KCC2 Thr906/Thr1007 are shown. HEK293 cells were transfected with DNA construct encoding wild type N-terminally FLAG-tagged KCC2. 36 h post-transfection, cells were exposed 30 min to either control isotonic conditions or hypotonic low Cl^− conditions, then treated in the same conditions with the specified inhibitors (1b, 1c, 1f, 1d, 1h, and 1g, respectively) at the indicated concentrations for an additional 30 min. Lysates were subjected to SDS-PAGE and Western blotting with the indicated antibodies.
(§5) Referring to FIG. 3, HEK293 cells were transfected with the DNA construct encoding wild type N-terminally FLAG-tagged KCC2. 36 h post-transfection, cells were exposed 30 min to either control isotonic or hypotonic low Cl^− conditions, then treated in the same conditions with the specified inhibitors at the indicated concen-trations for an additional 30 min. Lysates were subjected to SDS-PAGE and Western blotting with the indicated antibodies. Closantel, STOCK1S-14279 and STOCK1S-50699 were used as reference compounds.

[2] = system: SPAK pSer373; test: as above; type: cell-based, human; parameters: key: “—” showed no inhibition of phosphorylation of SPAK/NKCC1/KC22; settings: concentration inhibiting phosphorylation; for SPAK pSer373 (μM) hypo: hypotonic low Cl- conditions; for SPAK pSer373 (μM) Iso: isotonic conditions
Procedure: as §1, §2, §3, §4, §5

[3] = system: KCC2 pThr1007; test: as above; type: cell-based, human; parameters: key: “—” showed no inhibition of phosphorylation of SPAK/NKCC1/KC22; settings: concentration inhibiting phosphorylation; for KCC2 pThr1007 (μM) hypo: hypotonic low Cl- conditions; for KCC2 pThr1007 (μM) Iso: isotonic conditions
Procedure: as §1, §2, §3, §4, §5

[4] = system: KCC2 pThr906; test: as above; type: cell-based, human; parameters: key: “—” showed no inhibition of phosphorylation of SPAK/NKCC1/KC22; settings: concentration inhibiting phosphorylation; for KCC2 pThr906 (μM) hypo: hypotonic low Cl- conditions; for KCC2 pThr906 (μM) Iso: isotonic conditions
Procedure: as §1, §2, §3, §4, §5

[5] = target: T1, GST-[T233E]SPAK kinase (Homo sapiens, UniProt Q9UEW8, T231E); test: SPAK kinase assay employing CATCHtide; type: biochemical; settings: SPAK activity at different ATP concentrations
T1 construct: made in house; host or cells: E. coli
Procedure: SPAK kinase assays employing CATCHtide (cation chloride co-transporter peptide substrate). Peptide kinase assays, performed in triplicate, were set up in a total volume of 50 μl containing 0.5 μg GST-[T233E]SPAK kinase (˜5 nM at ˜10% purity) in 50 mM Tris/HCl, pH 7.5, 0.1 mM EGTA, 10 mM MgCl2, 300 μM CATCHtide ([…]; SEQ ID NO:1), […] [γ-32P]ATP (˜500 cpm/pmol) and the indicated concentrations of inhibitor dissolved in DMSO. After incubation for 30 min at 30° C., reactions were terminated by spotting 40 μl of the reaction mix onto P81 phosphocellulose paper and immersion in 50 mM phosphoric acid. The papers were washed extensively and the incorporation of [γ-^32P]ATP into CATCHtide was quantified by Cerenkov counting. IC^50 values were calculated with GraphPad Prism using non-linear regression analysis.
Referring to FIG. 7A, the activation of SPAK kinase by MO25α is shown. SPAK was assayed in the absence or presence of five-fold molar excess of wild-type MO25α.
Referring to FIG. 7B, kinetic data was determined for ZT-1a in the absence or presence of five-fold molar excess of wild-type MO25α. Data points are the average of three determinations, and the error bars are +/−SEM.

SMILES | NKCC1 pThr203 (μM) hypo [1] | NKCC1 pThr203 (μM) Iso [1] | SPAK pSer373 (μM) hypo [2] | SPAK pSer373 (μM) Iso [2] | KCC2 pThr1007 (μM) hypo [3] | KCC2 pThr1007 (μM) Iso [3] | KCC2 pThr906 (μM) hypo [4] | KCC2 pThr906 (μM) Iso [4] | change of IC50 values with increasing ATP concentrations [5]
Cc1cc(C(C#N)c2ccc(Cl)cc2)c(Cl)cc1NC(=O)c1ccccc1[N+](=O)[O-] (stereo not shown) [Compound 1e, N-(5-chloro-4-((4-chlorophenyl)(cyano)methyl)-2-methylphenyl)-2-nitrobenzamide] | — | — | — | — | — | — | — | — | 
Cc1cc(C(C#N)c2ccc(Cl)cc2)c(Cl)cc1NC(=O)c1ccccc1O (stereo not shown) [Compound 1b, N-(5-chloro-4-((4-chlorophenyl)(cyano)methyl)-2-methylphenyl)-2-hydroxy-benzamide] | 1 μM | 3 μM | 3, 3 μM | 3, 3 μM | 3, 3 μM | 3, 3 μM | 10, 10 μM | 10, 10 μM | 
Cc1cc(C(C#N)c2ccc(Cl)cc2)c(Cl)cc1NC(=O)c1ccccc1N (stereo not shown) [Compound 1d, 2-amino-n-(5-chloro-4-((4-chlorophenyl)(cyano)methyl)-2-methylphenyl)-benzamide] | 3 μM | 1 μM | 3, 3 μM | 3, 3 μM | 3, 3 μM | 3, 3 μM | 10, 10 μM | 10, 10 μM | 
Cc1cc(C(C#N)c2ccc(Cl)cc2)c(Cl)cc1NC(=O)c1cccc(F)c1O (stereo not shown) [Compound 1h, N-(5-chloro-4-((4-chlorophenyl)(cyano)methyl)-2-methylphenyl)-3-fluoro-2-hydroxy-benzamide] | 3 μM | 1 μM | 3, 3 μM | 3, 3 μM | 3, 3 μM | 3, 3 μM | 10, 10 μM | 10, 10 μM | 
CN[C@@H]1C[C@H]2O[C@@](C)([C@@H]1OC)n1c3ccccc3c3c4c(c5c6ccccc6n2c5c31)C(=O)NC4 [staurosporine, reference compound] |  |  |  |  |  |  |  |  | increased in a dose-proportional manner
COc1ccc(Cl)cc1C(=O)Nc1cc(Cl)c(C(C#N)c2ccc(Cl)cc2)cc1C (stereo not shown) [Compound 1j] | — | — | — | — | — | — | — | — | 
Cc1cc(C(C#N)c2ccc(Cl)cc2)c(Cl)cc1NC(=O)c1cccc(O)c1O (stereo not shown) [Compound 1i, N-(5-chloro-4-((4-chlorophenyl)(cyano)methyl)-2-methylphenyl)-2,3-dihydroxy-benzamide] | — | — | — | — | — | — | — | — | 
Cc1cc(C(C#N)c2ccc(Cl)cc2)c(Cl)cc1NC(=O)c1cc(Cl)cc(Cl)c1O (stereo not shown) [Compound 1f, 3,5-dichloro-n-(5-chloro-4-((4-chlorophenyl)(cyano)methyl)-2-methylphenyl)-2-hydroxy-benzamide] | 3 μM | 1 μM | 3, 3 μM | 3, 3 μM | 3, 3 μM | 3, 3 μM | 10, 10 μM | 10, 10 μM | 
Cc1cc(C(C#N)c2ccc(Cl)cc2)c(Cl)cc1NC(=O)c1cc(F)ccc1O (stereo not shown) [Compound 1g] | 3 μM | 1 μM | 3, 3 μM | 3, 3 μM | 3, 3 μM | 3, 3 μM | 10, 10 μM | 10, 10 μM | 
Cc1cc(C(C#N)c2ccc(Cl)cc2)c(Cl)cc1NC(=O)c1ccccc1S (stereo not shown) [Compound 1c, N-(5-chloro-4-((4-chlorophenyl)(cyano)methyl)-2-methylphenyl)-2-mercapto-benzamide] | 3 μM | 1 μM | 3, 3 μM | 3, 3 μM | 3, 3 μM | 3, 3 μM | 10, 10 μM | 10, 10 μM | 
